Data published in the supplement of paper PMC10307832.

Key:
Assay in all cases: relative viability (nuclei count vs DMSO), 5 days (fraction); higher = more cells survive
[1] = compound: CN1CCC(CC1)OC2=CC(=C(C=C2)NC3=NC=C4C(=N3)N(C(=O)N4C)C5CCCC5)OC [AZ3146] + Cc1nc(Nc2ncc(C(=O)Nc3c(C)cccc3Cl)s2)cc(N2CCN(CCO)CC2)n1 [Dasatinib] (partner 0.075 µM)
How it was run: (§1)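 Relative viability was taken as the ratio of nuclei in treated wells to nuclei in vehicle wells. Lung cancer cell lines in 1536-well plates received compounds by pin tool one day after seeding, either one drug alone or a fixed anchor-drug dose plus five library-drug doses (not always all listed) in √10 steps. Nuclei were counted on 4× images after 5 days of treatment, and values are medians of duplicate plates.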

[2] = compound: CCOC(=O)CCNc1cc(N2CCc3ccccc3CC2)nc(-c2ccccn2)n1 [GSK-J4] + CC1(C)CCC(c2ccc(Cl)cc2)=C(CN2CCN(c3ccc(C(=O)NS(=O)(=O)c4ccc(N[C@H](CCN5CCOCC5)CSc5ccccc5)c(S(=O)(=O)C(F)(F)F)c4)cc3)CC2)C1 [Navitoclax] (partner 0.5 µM)
How it was run: as §1

[3] = compound: CCOC(=O)CCNc1cc(N2CCc3ccccc3CC2)nc(-c2ccccn2)n1 [GSK-J4] + CS(=O)(=O)CCNCc1ccc(-c2ccc3ncnc(Nc4ccc(OCc5cccc(F)c5)c(Cl)c4)c3c2)o1 [Lapatinib] (partner 2 µM)
How it was run: as §1

[4] = compound: CN1CCC(CC1)OC2=CC(=C(C=C2)NC3=NC=C4C(=N3)N(C(=O)N4C)C5CCCC5)OC [AZ3146] + CCNC(=O)c1noc(-c2cc(C(C)C)c(O)cc2O)c1-c1ccc(CN2CCOCC2)cc1 [Luminespib] (partner 0.01 µM)
How it was run: as §1

Row | Cell Line | relative viability ([1]; first compound 0.08 µM) | relative viability ([1]; first compound 0.253 µM) | relative viability ([1]; first compound 0.8 µM) | relative viability ([1]; first compound 2.53 µM) | relative viability ([1]; first compound 8 µM) | relative viability ([2]; first compound 0.5 µM) | relative viability ([2]; first compound 1.581 µM) | relative viability ([2]; first compound 5 µM) | relative viability ([2]; first compound 15.81 µM) | relative viability ([2]; first compound 50 µM) | relative viability ([3]; first compound 0.5 µM) | relative viability ([3]; first compound 1.581 µM) | relative viability ([3]; first compound 5 µM) | relative viability ([3]; first compound 15.81 µM) | relative viability ([3]; first compound 50 µM) | relative viability ([4]; first compound 0.08 µM) | relative viability ([4]; first compound 0.253 µM) | relative viability ([4]; first compound 0.8 µM) | relative viability ([4]; first compound 2.53 µM) | relative viability ([4]; first compound 8 µM)
1 | LC-2-ad | 0.549 | 0.746 | 0.584 | 0.665 | 0.527 | 0.464 | 0.389 | 0.407 | 0.374 | 0.41 | 1.04 | 0.743 | 0.809 | 0.904 | 0.664 | 0.877 | 1.16 | 1.08 | 1.09 | 1.07
2 | HCC-15 | 0.727 | 0.64 | 0.597 | 0.557 | 0.491 | 0.692 | 0.701 | 0.779 | 0.566 | 0.444 | 0.827 | 0.436 | 0.724 | 0.754 | 0.644 | 0.262 | 0.393 | 0.531 | 0.785 | 0.552
3 | PC-3 [JPC-3] | 0.86 | 0.92 | 0.991 | 1.12 | 1.05 | 0.77 | 0.742 | 0.787 | 0.743 | 0.753 | 0.47 | 0.385 | 0.578 | 0.43 | 0.427 | 0.617 | 0.741 | 0.676 | 0.695 | 0.715
4 | NCI-H1915 | 0.262 | 0.344 | 0.337 | 0.301 | 0.318 | 0.759 | 0.713 | 0.747 | 0.715 | 0.765 | 0.963 | 0.802 | 0.83 | 0.941 | 0.961 | 0.717 | 0.888 | 0.913 | 0.875 | 0.919
5 | HOP-62 | 0.603 | 0.618 | 0.609 | 0.646 | 0.656 | 0.955 | 0.989 | 1.11 | 1.1 | 0.707 | 0.701 | 0.689 | 0.846 | 1.02 | 0.86 | 0.943 | 0.865 | 0.87 | 0.959 | 0.992
6 | LCLC-103H | 0.532 | 0.354 | 0.472 | 0.551 | 0.422 |  |  |  |  |  |  |  |  |  |  | 1.01 | 0.917 | 0.966 | 1.01 | 1.02
7 | NCI-H460 | 0.463 | 0.485 | 0.484 | 0.463 | 0.476 | 1.02 | 0.984 | 1.09 | 1.22 | 0.994 | 1.05 | 0.924 | 0.809 | 0.955 | 0.364 | 0.0349 | 0.0347 | 0.0408 | 0.0305 | 0.0293
8 | NCI-H441 | 0.636 | 0.68 | 0.922 | 0.497 | 0.536 | 0.818 | 0.362 | 0.508 | 0.667 | 0.535 |  |  |  |  |  | 0.274 | 0.465 | 0.353 | 0.38 | 0.473
9 | Calu-6 |  |  |  |  |  | 0.86 | 0.74 | 0.779 | 0.874 | 0.716 | 1 | 1.11 | 1.05 | 1.03 | 1.04 |  |  |  |  | 
